Source: ChEMBL document CHEMBL1909046, “DrugMatrix in vitro pharmacology data”

Experiments:
B2 bradykinin receptor = target: T1, B2 bradykinin receptor (Homo sapiens, UniProt P30411); assay type: cell membranes, Membrane; details: chem-1; also: in other assays of this panel Not Active means under 50% inhibition at 10 µM
T1 sequence (P30411 whole entry): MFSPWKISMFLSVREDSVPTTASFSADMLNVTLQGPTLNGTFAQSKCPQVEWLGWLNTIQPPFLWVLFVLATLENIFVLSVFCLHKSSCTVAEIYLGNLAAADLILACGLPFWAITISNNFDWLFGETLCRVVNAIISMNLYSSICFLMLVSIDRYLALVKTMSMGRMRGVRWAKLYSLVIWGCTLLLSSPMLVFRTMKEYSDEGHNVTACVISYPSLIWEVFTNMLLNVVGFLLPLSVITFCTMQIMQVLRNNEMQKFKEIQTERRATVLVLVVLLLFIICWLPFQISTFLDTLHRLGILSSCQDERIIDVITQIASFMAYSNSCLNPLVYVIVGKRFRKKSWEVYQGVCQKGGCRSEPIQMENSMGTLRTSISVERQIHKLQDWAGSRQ

[1] = target: T2, Muscarinic acetylcholine receptor M2 (Homo sapiens, UniProt P08172); assay type: cell membranes, CHO-K1, Membrane; details: cho-k1; also: in other assays of this panel Not Active means under 50% inhibition at 10 µM
T2 sequence (P08172 whole entry): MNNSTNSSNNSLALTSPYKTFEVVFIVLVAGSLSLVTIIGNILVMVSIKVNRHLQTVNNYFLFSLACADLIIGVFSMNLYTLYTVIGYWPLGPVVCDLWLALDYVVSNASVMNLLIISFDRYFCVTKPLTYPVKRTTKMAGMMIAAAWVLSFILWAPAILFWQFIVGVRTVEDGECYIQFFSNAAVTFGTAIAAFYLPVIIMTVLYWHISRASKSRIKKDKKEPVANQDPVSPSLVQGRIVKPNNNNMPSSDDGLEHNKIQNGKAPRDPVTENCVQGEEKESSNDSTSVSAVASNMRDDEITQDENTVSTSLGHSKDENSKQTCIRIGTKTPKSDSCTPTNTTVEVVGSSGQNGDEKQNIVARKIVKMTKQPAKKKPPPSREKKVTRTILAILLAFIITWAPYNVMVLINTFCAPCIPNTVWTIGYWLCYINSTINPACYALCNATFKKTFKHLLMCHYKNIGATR

Nitric oxide synthase 1 = Nitric oxide synthase 1 (Rattus norvegicus, UniProt P29476); assay type: tissue-based, Cerebellum; also: in other assays of this panel Not Active means under 50% inhibition at 10 µM
Chain of Nitric oxide synthase 1 (P29476 whole entry): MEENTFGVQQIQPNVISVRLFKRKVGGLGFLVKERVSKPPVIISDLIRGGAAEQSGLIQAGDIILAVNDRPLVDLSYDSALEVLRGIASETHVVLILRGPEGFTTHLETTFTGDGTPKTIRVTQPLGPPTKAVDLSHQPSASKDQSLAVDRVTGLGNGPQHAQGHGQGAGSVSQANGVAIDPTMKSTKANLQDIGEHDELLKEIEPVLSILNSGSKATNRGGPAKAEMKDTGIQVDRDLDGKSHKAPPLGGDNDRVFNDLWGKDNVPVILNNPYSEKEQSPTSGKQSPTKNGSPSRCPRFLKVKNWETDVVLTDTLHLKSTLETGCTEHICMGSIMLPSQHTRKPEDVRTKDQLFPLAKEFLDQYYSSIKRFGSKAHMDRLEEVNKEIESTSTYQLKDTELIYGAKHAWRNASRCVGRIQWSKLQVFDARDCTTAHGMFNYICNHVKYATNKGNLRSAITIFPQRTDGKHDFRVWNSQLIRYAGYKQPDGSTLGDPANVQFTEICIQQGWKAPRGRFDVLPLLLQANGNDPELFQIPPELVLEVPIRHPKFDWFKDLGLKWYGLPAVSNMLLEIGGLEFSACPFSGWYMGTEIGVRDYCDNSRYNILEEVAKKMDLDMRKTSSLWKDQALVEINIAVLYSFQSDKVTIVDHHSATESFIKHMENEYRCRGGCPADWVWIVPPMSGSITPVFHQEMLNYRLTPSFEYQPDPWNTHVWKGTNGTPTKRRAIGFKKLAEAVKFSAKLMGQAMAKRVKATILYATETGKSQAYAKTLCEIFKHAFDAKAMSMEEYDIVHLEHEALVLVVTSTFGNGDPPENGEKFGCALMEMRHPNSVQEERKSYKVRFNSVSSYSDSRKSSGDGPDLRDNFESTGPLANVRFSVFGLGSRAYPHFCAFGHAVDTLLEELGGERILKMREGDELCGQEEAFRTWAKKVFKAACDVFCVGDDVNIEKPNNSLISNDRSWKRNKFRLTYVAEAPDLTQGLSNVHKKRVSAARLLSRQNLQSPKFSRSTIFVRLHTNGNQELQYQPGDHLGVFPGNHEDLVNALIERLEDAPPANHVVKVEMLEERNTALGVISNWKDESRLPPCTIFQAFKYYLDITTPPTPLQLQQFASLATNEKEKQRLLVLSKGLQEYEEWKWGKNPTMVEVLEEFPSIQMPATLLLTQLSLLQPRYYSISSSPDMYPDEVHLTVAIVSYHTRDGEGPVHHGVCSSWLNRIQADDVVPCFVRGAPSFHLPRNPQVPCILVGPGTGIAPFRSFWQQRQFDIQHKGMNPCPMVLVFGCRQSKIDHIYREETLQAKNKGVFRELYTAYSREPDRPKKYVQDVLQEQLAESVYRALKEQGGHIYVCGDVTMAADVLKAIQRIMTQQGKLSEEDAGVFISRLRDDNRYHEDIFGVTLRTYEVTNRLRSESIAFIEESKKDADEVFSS

[2] = DRUGMATRIX: Leukotriene, BLT (LTB4) radioligand binding (ligand: [3H]LTB4); assay type: cell membranes, Membrane; details: u-937; Not Active = under 50% inhibition at 10 µM
Vasopressin V1a receptor = Vasopressin V1a receptor (Homo sapiens, UniProt P37288); assay type: cell membranes, Membrane; details: hek293; also: in other assays of this panel Not Active means under 50% inhibition at 10 µM
Chain of Vasopressin V1a receptor (P37288 whole entry): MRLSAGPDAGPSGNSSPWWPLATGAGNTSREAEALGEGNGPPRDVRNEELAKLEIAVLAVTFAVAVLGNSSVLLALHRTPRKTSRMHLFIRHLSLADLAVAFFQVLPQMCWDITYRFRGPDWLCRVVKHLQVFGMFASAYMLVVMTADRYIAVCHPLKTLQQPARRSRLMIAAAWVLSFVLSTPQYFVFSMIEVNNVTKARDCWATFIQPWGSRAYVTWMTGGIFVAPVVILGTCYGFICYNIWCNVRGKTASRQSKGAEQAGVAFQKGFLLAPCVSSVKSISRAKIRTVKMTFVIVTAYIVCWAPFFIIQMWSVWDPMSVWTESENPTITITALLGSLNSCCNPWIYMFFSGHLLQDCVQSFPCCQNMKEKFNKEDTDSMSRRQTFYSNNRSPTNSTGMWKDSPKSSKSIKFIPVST

Insulin receptor = Insulin receptor (Rattus norvegicus, UniProt P15127); assay type: cell membranes, Wistar, Liver, Membrane; also: in other assays of this panel Not Active means under 50% inhibition at 10 µM
Chain of Insulin receptor (P15127 27-759 limits assumed): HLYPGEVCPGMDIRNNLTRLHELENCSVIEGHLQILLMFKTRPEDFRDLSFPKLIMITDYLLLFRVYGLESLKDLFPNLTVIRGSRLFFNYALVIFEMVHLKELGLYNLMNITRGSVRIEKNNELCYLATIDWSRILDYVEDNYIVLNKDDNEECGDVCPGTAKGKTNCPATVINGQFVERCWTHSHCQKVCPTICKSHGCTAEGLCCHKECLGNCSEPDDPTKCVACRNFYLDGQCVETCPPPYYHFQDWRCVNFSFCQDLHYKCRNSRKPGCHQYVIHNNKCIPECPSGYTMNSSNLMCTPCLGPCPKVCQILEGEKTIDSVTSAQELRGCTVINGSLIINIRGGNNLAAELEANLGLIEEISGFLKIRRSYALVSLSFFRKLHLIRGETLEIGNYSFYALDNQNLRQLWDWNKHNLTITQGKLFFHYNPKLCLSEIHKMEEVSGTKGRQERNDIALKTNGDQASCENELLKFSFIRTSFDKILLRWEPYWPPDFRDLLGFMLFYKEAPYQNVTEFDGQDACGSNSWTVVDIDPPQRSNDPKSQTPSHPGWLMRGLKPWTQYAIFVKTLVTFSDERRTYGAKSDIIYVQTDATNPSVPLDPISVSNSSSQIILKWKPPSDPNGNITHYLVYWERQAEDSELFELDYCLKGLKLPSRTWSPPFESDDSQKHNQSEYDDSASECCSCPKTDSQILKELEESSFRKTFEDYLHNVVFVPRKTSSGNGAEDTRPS
Chain of Insulin receptor (P15127 764-1383 limits assumed): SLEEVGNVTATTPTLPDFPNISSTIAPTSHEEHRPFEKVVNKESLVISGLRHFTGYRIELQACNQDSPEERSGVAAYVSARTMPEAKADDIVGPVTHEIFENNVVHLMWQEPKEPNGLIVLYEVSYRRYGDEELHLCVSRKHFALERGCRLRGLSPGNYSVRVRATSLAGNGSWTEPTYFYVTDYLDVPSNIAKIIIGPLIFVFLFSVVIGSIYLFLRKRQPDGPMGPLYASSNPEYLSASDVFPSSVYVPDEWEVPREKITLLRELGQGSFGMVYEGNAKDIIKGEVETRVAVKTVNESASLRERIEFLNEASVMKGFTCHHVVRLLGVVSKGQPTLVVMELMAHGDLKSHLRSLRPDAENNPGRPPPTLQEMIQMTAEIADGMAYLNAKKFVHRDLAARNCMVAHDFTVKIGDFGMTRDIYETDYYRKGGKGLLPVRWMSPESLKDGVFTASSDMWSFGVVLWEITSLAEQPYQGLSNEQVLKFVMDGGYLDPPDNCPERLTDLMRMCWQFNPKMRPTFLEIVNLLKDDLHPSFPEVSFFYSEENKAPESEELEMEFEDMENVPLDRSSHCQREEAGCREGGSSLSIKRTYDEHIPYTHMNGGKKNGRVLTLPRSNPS

[3] = target: Matrix metalloproteinase-9 (Homo sapiens, UniProt P14780); assay type: cell-based
Chain of Matrix metalloproteinase-9 (P14780 whole entry): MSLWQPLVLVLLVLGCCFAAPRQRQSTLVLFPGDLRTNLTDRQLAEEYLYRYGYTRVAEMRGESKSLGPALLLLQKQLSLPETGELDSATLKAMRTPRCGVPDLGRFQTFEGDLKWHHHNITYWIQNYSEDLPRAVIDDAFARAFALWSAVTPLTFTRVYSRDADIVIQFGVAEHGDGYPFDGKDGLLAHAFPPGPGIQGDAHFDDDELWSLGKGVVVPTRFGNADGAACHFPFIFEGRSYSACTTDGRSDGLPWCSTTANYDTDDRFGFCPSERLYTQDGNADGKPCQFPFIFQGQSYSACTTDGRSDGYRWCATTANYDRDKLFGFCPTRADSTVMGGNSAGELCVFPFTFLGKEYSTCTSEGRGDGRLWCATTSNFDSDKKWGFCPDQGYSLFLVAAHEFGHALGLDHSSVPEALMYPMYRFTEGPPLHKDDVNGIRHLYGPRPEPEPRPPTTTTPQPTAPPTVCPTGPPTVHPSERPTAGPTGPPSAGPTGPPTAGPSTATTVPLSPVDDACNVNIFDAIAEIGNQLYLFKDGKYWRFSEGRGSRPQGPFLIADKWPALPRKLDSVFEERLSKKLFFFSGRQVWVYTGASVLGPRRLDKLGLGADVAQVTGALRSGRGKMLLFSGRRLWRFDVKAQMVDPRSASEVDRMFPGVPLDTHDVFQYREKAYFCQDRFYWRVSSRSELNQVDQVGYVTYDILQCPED

Neutrophil elastase = target: T3, Neutrophil elastase (Homo sapiens, UniProt P08246); assay type: tissue-based
T3 sequence (P08246 whole entry): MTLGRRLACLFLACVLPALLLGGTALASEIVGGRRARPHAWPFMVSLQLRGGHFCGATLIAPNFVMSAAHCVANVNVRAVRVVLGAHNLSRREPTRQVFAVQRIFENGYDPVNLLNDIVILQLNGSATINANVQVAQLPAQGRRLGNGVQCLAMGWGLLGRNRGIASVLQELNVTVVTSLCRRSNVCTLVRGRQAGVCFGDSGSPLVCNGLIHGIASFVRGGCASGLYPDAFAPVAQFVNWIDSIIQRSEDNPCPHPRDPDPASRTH

[4] = DRUGMATRIX: Imidazoline I2, Central radioligand binding (ligand: [3H] Idazoxan); assay type: cell membranes, Rattus norvegicus, Wistar, Cerebral cortex, Membrane; details: Not Active = under 50% inhibition at 10 µM
[5] = DRUGMATRIX: Tumor Necrosis Factor (TNF), Non-Selective radioligand binding (ligand: [125I] TNF-alpha); assay type: cell membranes, Membrane; details: u-937; Not Active = under 50% inhibition at 10 µM
[6] = target: Protein phosphatase 3 catalytic subunit alpha (Homo sapiens, UniProt Q08209); set-up: species or system Escherichia coli
[7] = target: T4, Nitric oxide synthase, inducible (Mus musculus, UniProt P29477); set-up: species or system Escherichia coli
T4 sequence (P29477 whole entry): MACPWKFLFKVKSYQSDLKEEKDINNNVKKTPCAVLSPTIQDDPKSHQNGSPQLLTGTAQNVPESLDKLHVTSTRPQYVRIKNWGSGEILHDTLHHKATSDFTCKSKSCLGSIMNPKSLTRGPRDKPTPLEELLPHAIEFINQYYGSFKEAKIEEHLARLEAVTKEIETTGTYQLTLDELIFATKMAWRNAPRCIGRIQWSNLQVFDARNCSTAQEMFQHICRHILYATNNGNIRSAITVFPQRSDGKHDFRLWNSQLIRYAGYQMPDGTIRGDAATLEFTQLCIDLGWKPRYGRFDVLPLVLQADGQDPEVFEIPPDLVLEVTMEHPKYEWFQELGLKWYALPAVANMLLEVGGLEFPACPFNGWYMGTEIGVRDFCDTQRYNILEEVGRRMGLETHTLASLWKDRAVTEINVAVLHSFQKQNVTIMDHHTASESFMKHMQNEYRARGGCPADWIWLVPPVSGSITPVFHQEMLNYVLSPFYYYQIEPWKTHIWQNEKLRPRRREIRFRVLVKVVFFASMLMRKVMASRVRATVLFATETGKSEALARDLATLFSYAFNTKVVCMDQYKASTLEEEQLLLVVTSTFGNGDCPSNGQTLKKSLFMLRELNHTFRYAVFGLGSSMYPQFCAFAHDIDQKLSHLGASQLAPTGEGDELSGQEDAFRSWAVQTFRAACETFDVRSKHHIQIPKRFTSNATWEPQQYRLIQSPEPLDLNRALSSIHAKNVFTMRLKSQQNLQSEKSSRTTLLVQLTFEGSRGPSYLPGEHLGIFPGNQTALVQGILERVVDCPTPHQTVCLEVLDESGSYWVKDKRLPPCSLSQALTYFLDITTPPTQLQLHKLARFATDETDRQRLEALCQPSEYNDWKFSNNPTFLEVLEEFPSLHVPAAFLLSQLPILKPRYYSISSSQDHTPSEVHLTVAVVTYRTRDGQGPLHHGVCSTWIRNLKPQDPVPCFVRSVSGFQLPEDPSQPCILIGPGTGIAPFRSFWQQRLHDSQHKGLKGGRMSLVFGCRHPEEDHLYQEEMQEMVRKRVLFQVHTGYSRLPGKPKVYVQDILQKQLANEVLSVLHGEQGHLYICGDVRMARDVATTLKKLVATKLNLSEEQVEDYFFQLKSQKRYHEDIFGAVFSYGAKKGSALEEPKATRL

[8] = target: Prostaglandin G/H synthase 1 (Homo sapiens, UniProt P23219); test: biochemical; assay type: tissue-based, Platelet; details: platelet
Chain of Prostaglandin G/H synthase 1 (P23219 whole entry): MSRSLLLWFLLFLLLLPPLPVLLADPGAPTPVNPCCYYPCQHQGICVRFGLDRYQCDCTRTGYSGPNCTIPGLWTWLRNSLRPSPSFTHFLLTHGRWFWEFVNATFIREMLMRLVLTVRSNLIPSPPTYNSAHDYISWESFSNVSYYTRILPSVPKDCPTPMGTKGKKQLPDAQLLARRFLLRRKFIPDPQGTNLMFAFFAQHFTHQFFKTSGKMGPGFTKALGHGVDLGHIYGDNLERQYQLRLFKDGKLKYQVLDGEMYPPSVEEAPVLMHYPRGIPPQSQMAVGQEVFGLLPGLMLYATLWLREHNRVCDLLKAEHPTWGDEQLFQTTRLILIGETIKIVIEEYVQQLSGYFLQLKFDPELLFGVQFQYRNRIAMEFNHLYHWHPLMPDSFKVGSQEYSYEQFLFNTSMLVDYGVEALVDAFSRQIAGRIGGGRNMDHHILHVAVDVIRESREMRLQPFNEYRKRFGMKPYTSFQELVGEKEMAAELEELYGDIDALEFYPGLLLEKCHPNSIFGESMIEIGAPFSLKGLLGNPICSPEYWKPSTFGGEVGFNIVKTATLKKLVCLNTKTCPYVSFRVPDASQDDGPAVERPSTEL

CCOC(=O)[C@H](CCc1ccccc1)N[C@@H](C)C(=O)N1[C@H](C(=O)O)C[C@@H]2CCC[C@@H]21
Not Active: IC50 (B2 bradykinin receptor) | IC50 [1] | IC50 (Nitric oxide synthase 1) | IC50 [2] | Ki [2] | IC50 (Vasopressin V1a receptor) | IC50 (Insulin receptor) | IC50 [3] | IC50 (Neutrophil elastase) | IC50 [4] | Ki [4] | IC50 [5] | Ki [5] | IC50 [6] | IC50 [7] | IC50 [8]

NNC(=O)c1ccncc1 [ISONIAZID]
Not Active: IC50 (B2 bradykinin receptor) | IC50 [1] | IC50 (Nitric oxide synthase 1) | IC50 [2] | Ki [2] | IC50 (Vasopressin V1a receptor) | IC50 (Insulin receptor) | IC50 [3] | IC50 (Neutrophil elastase) | IC50 [4] | Ki [4] | IC50 [5] | Ki [5] | IC50 [6] | IC50 [7] | IC50 [8]

Nc1nnc(-c2cccc(Cl)c2Cl)c(N)n1 [LAMOTRIGINE]
Not Active: IC50 (B2 bradykinin receptor) | IC50 [1] | IC50 (Nitric oxide synthase 1) | IC50 [2] | Ki [2] | IC50 (Vasopressin V1a receptor) | IC50 (Insulin receptor) | IC50 [3] | IC50 (Neutrophil elastase) | IC50 [4] | Ki [4] | IC50 [5] | Ki [5] | IC50 [6] | IC50 [7] | IC50 [8]

C[C@]12Cc3c[nH]nc3C[C@@H]1CC[C@@H]1[C@@H]2CC[C@@]2(C)[C@H]1CC[C@]2(C)O [STANOZOLOL]
Not Active: IC50 (B2 bradykinin receptor) | IC50 [1] | IC50 (Nitric oxide synthase 1) | IC50 [2] | Ki [2] | IC50 (Vasopressin V1a receptor) | IC50 (Insulin receptor) | IC50 [3] | IC50 (Neutrophil elastase) | IC50 [4] | Ki [4] | IC50 [5] | Ki [5] | IC50 [6] | IC50 [7] | IC50 [8]

CC1=C(/C=C/C(C)=C/C=C/C(C)=C\C(=O)O)C(C)(C)CCC1 [ISOTRETINOIN]
Not Active: IC50 (B2 bradykinin receptor) | IC50 [1] | IC50 (Nitric oxide synthase 1) | IC50 [2] | Ki [2] | IC50 (Vasopressin V1a receptor) | IC50 (Insulin receptor) | IC50 [3] | IC50 (Neutrophil elastase) | IC50 [4] | Ki [4] | IC50 [5] | Ki [5] | IC50 [6] | IC50 [7] | IC50 [8]

NC(CO)(CO)CO [TROMETHAMINE]
Not Active: IC50 (B2 bradykinin receptor) | IC50 [1] | IC50 (Nitric oxide synthase 1) | IC50 [2] | Ki [2] | IC50 (Vasopressin V1a receptor) | IC50 (Insulin receptor) | IC50 [3] | IC50 (Neutrophil elastase) | IC50 [4] | Ki [4] | IC50 [5] | Ki [5] | IC50 [6] | IC50 [7] | IC50 [8]

Cc1ccc(C(=O)C(C)CN2CCCCC2)cc1 (centres undefined) [TOLPERISONE]
Not Active: IC50 (B2 bradykinin receptor) | IC50 [1] | IC50 (Nitric oxide synthase 1) | IC50 [2] | Ki [2] | IC50 (Vasopressin V1a receptor) | IC50 (Insulin receptor) | IC50 [3] | IC50 (Neutrophil elastase) | IC50 [4] | Ki [4] | IC50 [5] | Ki [5] | IC50 [6] | IC50 [7] | IC50 [8]

CN(N=O)C(=O)N[C@@H](C=O)[C@@H](O)[C@H](O)[C@H](O)CO [STREPTOZOCIN]
Not Active: IC50 (B2 bradykinin receptor) | IC50 [1] | IC50 (Nitric oxide synthase 1) | IC50 [2] | Ki [2] | IC50 (Vasopressin V1a receptor) | IC50 (Insulin receptor) | IC50 [3] | IC50 (Neutrophil elastase) | IC50 [4] | Ki [4] | IC50 [5] | Ki [5] | IC50 [6] | IC50 [7] | IC50 [8]

NC(=O)c1ncn([C@@H]2O[C@H](CO)[C@@H](O)[C@H]2O)n1 [RIBAVIRIN]
Not Active: IC50 (B2 bradykinin receptor) | IC50 [1] | IC50 (Nitric oxide synthase 1) | IC50 [2] | Ki [2] | IC50 (Vasopressin V1a receptor) | IC50 (Insulin receptor) | IC50 [3] | IC50 (Neutrophil elastase) | IC50 [4] | Ki [4] | IC50 [5] | Ki [5] | IC50 [6] | IC50 [7] | IC50 [8]
